# Tests used:
# [1] = mass balance study with [14C]vibegron in healthy subjects; settings: human plasma at 2 and 4 hr
# healthy subjects = experiment: thorough QT single oral dose study; format: in vivo, human; settings: single dose of moxifloxacin 400 mg
# patients with OAB = experiment: Phase 2b vital sign changes (HR, SBP, DBP); format: in vivo, human; settings: Tolterodine 4 mg
# Excerpt: None led to discontinuation. The overall incidence of orthostatic symptoms was low.
# Small differences in the percent of subjects exceeding categorical heart rate and blood pressure thresholds for vibegron were similar to those in the tolterodine arm.
# [2] = tested on: patients with overactive bladder
# Excerpt: A placebo group was included in the main study, and a group that received tolterodine monotherapy was included in the main study and in the extension.
# men and women with OAB = experiment: Phase 2b study in OAB, efficacy (voiding diary); format: in vivo, human; settings: tolterodine ER 4 mg once daily
# Excerpt: Part 2 was designed to continue to assess the safety and efficacy of concomitant dosing. […] Subjects in both Part 1 and Part 2 had the option of enrolling in a 1-year extension. Participants were required to keep a voiding diary, recording the occurrence of each strong urge, total incontinence, and urge incontinence episode. Efficacy data for Part 1 and Part 2 are summarized herein.
# The total number of urgency incontinence episodes must have exceeded the total number of stress incontinence episodes for all subjects.
# [3] = tested on: patients with overactive bladder; experiment: Phase 2b 52-week extension safety; format: in vivo, human; settings: tolterodine ER 4 mg
# Excerpt: There were no deaths reported during the study.
# [4] = Tolterodine ER 4 mg, N = 257, first 12 weeks
smiles,measurement,setting,value
O=C(O)C1OC(OC(c2ccccc2)C2CCC(Cc3ccc(NC(=O)C4CCc5nccc(=O)n54)cc3)N2)C(O)C(O)C1O (stereo not drawn) [M7],share of total circulating drug-related material,[1],12-14%
"COc1c(N2C[C@@H]3CCCN[C@@H]3C2)c(F)cc2c(=O)c(C(=O)O)cn(C3CC3)c12 [moxifloxacin, reference compound]",effect on QTcF,healthy subjects,statistically significant effect
"Cc1ccc(O)c([C@H](CCN(C(C)C)C(C)C)c2ccccc2)c1 [Tolterodine ER, tolterodine]","DBP change from baseline, mean (95% CI) Max, week 1 to 8",patients with OAB,"5.19 (4.26, 6.13) mm Hg"
same,"DBP change from baseline, mean (95% CI), week 1",patients with OAB,"−0.12 (−1.10, 0.86) mm Hg"
same,"HR change from baseline, mean (95% CI) maximum, week 1 to 8",patients with OAB,"5.66 (4.69, 6.63) bpm"
same,"HR change from baseline, mean (95% CI), week 1",patients with OAB,"0.68 (−0.31, 1.67) bpm"
same,"SBP change from baseline, mean (95% CI) maximum, week 1 to 8",patients with OAB,"7.29 (6.01, 8.57) mm Hg"
same,"SBP change from baseline, mean (95% CI), week 1",patients with OAB,"0.04 (−1.36, 1.43) mm Hg"
same,frequency of injuries,[2]; Phase 2 program,2.1%
same,"Accidental overdose, %",[2]; [4],(2.3) %
same,"Alanine aminotransferase increased, %",[2]; [4],(0.4) %
same,"Arthralgia, %",[2]; [4],(1.2) %
same,"Aspartate aminotransferase increased, %",[2]; [4],(0.0) %
same,"Constipation, %",[2]; [4],(1.9) %
same,"Diarrhea, %",[2]; [4],(3.5) %
same,"Discontinuation due to AE, %",[2]; [4],(1.6) %
same,"Dizziness, %",[2]; [4],(1.9) %
same,"Drug-related AE, %",[2]; [4],(16.3) %
same,"Dry eye, %",[2]; [4],(3.9) %
same,"Dry mouth, %",[2]; [4],(8.6) %
same,"Dysuria, %",[2]; [4],(1.2) %
same,"Fatigue, %",[2]; [4],(2.3) %
same,"Headache, %",[2]; [4],(3.5) %
same,"Nasopharyngitis, %",[2]; [4],(1.6) %
same,"Nausea, %",[2]; [4],(2.3) %
same,"Osteoarthritis, %",[2]; [4],(0.0) %
same,"Pain in extremity, %",[2]; [4],(0.4) %
same,"Serious AE, %",[2]; [4],(1.2) %
same,"Sinusitis, %",[2]; [4],(0.4) %
same,"Urinary tract infection, %",[2]; [4],(4.7) %
same,"≥1 AE, %",[2]; [4],(45.1) %
same,incidence of dry mouth compared to placebo or vibegron monotherapy groups,"[2]; groups that received tolterodine (alone or with vibegron), main study",higher
same,SAEs reported,"[2]; tolterodine 4 mg, main study",3
same,"Total Incontinence Episodes, change from baseline Week 8, mean",men and women with OAB; OAB Wet subjects,−1.80
same,"Total Incontinence Episodes, daily number, Week 8 mean",men and women with OAB; OAB Wet subjects,1.32
same,"Total Incontinence Episodes, difference from placebo Week 8, LS means",men and women with OAB; OAB Wet subjects,−0.34
same,"Urgency Incontinence Episodes, change from baseline Week 8, mean",men and women with OAB; OAB Wet subjects,−1.67
same,"Urgency Incontinence Episodes, daily number, Week 8 mean",men and women with OAB; OAB Wet subjects,1.15
same,"Urgency Incontinence Episodes, difference from placebo Week 8, LS means",men and women with OAB; OAB Wet subjects,−0.46
same,"Micturitions, change from baseline Week 8, mean",men and women with OAB; Part 1,−1.73
same,"Micturitions, daily number, Week 8 mean",men and women with OAB; Part 1,9.24
same,"Micturitions, difference from placebo Week 8, LS means",men and women with OAB; Part 1,−0.54
same,"Urgency Episodes, change from baseline Week 8, mean",men and women with OAB; Part 1,−2.52
same,"Urgency Episodes, daily number, Week 8 mean",men and women with OAB; Part 1,3.91
same,"Urgency Episodes, difference from placebo Week 8, LS means",men and women with OAB; Part 1,−0.94
same,"change from baseline in volume voided per micturition, difference from placebo in LS means",men and women with OAB; Week 8,30.77 mL
same,drug-related SAE,[3],one drug-related SAE of ileus paralytic
same,incidence of dry mouth compared to the other treatment groups,[3],higher

# Source: patent US12102638B2 (Urovant Sciences GmbH, priority 2017, dated 2024)
